Target: DNA-dependent protein kinase catalytic subunit (Homo sapiens, UniProt P78527)
Test: Inhibition of DNA-dependent protein kinase

DNA-dependent protein kinase catalytic subunit, sequence (P78527 whole entry): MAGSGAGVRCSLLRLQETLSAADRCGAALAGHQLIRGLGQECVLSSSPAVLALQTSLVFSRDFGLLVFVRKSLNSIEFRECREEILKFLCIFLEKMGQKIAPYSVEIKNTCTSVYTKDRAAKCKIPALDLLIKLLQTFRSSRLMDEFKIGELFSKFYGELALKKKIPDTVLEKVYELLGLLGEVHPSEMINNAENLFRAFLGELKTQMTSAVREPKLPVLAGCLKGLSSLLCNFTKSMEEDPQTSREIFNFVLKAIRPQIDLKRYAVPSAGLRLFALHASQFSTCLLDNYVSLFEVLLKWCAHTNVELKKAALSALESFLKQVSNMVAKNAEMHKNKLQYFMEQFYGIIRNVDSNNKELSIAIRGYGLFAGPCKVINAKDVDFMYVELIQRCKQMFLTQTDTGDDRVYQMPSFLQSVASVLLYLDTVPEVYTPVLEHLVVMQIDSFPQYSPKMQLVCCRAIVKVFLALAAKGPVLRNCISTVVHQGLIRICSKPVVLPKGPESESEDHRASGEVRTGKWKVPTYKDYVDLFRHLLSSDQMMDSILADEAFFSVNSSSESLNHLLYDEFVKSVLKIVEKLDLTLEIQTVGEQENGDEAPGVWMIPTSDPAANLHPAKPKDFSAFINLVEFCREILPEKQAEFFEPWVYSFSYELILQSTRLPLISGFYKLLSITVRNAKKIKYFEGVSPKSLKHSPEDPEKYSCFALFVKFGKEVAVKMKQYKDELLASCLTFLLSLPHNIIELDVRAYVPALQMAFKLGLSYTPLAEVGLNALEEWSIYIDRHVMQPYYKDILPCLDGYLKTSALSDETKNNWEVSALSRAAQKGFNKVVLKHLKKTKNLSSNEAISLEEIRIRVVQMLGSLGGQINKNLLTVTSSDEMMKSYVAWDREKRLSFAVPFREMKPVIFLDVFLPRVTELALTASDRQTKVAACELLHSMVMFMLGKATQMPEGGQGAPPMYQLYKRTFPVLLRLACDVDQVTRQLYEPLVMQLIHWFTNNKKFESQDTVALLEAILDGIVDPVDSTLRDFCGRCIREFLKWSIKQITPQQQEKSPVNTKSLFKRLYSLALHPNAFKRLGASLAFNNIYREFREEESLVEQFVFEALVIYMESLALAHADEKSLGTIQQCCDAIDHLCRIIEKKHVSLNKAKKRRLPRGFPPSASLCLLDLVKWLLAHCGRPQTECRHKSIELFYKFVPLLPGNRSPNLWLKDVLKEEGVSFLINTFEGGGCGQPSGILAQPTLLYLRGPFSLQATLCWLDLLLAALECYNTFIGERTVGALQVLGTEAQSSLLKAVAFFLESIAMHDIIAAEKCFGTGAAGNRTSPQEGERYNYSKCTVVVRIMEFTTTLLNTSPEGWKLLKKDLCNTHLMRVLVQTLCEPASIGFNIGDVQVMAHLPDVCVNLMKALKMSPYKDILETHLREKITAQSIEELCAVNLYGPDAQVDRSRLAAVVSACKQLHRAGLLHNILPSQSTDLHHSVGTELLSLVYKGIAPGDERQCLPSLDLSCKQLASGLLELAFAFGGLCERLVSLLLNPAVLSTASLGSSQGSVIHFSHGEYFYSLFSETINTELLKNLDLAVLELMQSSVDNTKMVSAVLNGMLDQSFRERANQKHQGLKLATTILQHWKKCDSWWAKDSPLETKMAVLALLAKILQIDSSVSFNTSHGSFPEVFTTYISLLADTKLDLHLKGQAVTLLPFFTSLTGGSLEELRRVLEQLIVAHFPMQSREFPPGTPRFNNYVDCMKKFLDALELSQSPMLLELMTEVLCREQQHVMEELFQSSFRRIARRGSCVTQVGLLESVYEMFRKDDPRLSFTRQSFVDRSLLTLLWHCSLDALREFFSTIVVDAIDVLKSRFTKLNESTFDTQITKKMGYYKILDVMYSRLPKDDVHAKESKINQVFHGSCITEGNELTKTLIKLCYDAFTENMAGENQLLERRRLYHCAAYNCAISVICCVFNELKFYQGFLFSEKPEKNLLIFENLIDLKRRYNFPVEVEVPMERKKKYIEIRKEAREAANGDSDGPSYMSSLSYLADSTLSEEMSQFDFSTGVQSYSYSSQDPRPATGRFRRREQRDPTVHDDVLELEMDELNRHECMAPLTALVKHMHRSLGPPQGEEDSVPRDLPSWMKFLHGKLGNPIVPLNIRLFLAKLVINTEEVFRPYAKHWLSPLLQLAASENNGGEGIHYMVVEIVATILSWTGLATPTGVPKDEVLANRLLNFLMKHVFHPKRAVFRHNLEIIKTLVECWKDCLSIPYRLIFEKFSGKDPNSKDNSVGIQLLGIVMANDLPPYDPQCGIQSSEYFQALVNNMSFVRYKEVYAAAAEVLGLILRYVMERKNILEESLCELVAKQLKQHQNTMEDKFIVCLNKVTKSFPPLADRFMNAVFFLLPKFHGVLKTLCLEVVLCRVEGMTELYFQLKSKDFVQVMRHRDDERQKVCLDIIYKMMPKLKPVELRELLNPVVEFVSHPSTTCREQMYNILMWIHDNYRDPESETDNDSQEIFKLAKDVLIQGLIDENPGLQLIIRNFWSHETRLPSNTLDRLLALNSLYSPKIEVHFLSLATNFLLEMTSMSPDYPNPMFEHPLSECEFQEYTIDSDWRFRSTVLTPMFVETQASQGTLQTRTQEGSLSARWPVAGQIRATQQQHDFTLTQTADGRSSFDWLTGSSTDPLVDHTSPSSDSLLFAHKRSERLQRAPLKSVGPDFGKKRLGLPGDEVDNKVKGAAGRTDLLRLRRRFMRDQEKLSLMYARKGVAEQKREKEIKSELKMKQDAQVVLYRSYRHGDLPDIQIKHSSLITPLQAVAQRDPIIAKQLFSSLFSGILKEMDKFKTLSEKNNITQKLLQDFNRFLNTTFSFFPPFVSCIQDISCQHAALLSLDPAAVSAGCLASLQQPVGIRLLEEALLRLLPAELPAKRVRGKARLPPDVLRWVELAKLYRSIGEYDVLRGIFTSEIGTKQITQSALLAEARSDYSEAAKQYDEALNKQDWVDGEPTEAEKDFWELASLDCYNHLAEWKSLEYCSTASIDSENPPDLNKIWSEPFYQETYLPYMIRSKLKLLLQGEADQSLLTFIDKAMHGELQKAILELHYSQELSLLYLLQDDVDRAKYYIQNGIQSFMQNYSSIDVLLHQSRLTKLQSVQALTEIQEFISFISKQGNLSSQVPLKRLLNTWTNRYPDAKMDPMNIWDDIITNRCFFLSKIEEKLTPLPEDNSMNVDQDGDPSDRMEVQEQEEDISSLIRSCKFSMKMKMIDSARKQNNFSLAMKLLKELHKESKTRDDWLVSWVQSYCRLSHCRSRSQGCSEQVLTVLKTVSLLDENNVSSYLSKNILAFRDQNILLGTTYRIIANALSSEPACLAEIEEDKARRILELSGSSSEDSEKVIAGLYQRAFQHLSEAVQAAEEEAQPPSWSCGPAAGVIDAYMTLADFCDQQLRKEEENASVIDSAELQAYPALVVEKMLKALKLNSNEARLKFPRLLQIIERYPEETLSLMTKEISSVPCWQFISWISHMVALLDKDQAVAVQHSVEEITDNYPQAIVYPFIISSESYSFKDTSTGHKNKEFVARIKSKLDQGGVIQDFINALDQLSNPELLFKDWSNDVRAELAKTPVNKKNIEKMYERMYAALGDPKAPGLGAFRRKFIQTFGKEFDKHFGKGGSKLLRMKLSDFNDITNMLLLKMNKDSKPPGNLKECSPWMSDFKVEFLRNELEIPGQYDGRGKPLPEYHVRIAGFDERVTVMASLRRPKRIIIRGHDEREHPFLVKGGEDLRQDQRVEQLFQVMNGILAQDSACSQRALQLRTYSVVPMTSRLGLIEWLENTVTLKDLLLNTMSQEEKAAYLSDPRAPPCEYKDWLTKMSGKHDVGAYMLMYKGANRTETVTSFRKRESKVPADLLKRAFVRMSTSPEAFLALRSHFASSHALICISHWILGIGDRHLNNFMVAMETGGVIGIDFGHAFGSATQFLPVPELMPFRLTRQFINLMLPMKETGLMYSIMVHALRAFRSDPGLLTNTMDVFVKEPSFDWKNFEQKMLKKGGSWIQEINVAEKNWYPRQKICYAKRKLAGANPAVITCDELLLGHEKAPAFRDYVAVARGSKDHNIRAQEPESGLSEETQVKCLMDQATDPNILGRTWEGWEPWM

Compared with `COc1cccc2c(=O)oc(N3CCOCC3)cc12`, `COc1cccc2c(=O)cc(N3CCOCC3)oc12` is 1.8-fold lower in IC50: 3200 nM for the first, 1800 nM for the second.

`O=c1oc(N2CCOCC2)cc2c(-c3cccc4c3oc3ccccc34)cccc12` and `O=c1oc(N2CCOCC2)cc2c(-c3cccc4c3sc3ccccc34)cccc12` are within 1.5-fold of each other in IC50: 330 nM for the first, 340 nM for the second.

Going from `O=c1cc(N2CCOCC2)c2cc(-c3cccs3)ccc2o1` to `O=c1cc(N2CCOCC2)c2ccc(-c3cccs3)cc2o1`, the IC50 falls from 1200 nM to 600 nM (2-fold).

Going from `O=c1cc(N2CCOCC2)c2ccc(-c3cccc4c3sc3ccccc34)cc2o1` to `O=c1cc(N2CCOCC2)c2cc(-c3cccc4c3sc3ccccc34)ccc2o1`, the IC50 rises from 2100 nM to over 10000 nM. The first is the more potent here.

`O=c1oc(N2CCOCC2)cc2ccccc12` and `O=c1cc(N2CCOCC2)oc2ccccc12` cannot be ordered by IC50: over 10000 nM for the first, over 10000 nM for the second.

First: O=c1cc(N2CCOCC2)c2ccc(-c3cccc4c3oc3ccccc34)cc2o1
Second: O=c1cc(N2CCOCC2)c2cc(-c3cccc4c3oc3ccccc34)ccc2o1
The IC50 of the first is lower: 2100 nM for the first, over 10000 nM for the second.

First: O=c1cc(N2CCOCC2)oc2c(-c3cccc4c3sc3ccccc34)cccc12
Second: CCN1CCN(CC(=O)Nc2ccc(-c3cccc4c(=O)cc(N5CCOCC5)oc34)c3sc4ccccc4c23)CC1
The IC50 of the first is 6-fold higher: 30 nM for the first, 5 nM for the second. The second is the more potent here.

Compared with `COc1ccc2c(N3CCOCC3)cc(=O)oc2c1`, `COc1ccc2oc(=O)cc(N3CCOCC3)c2c1` is 3.2-fold lower in IC50: 5400 nM for the first, 1700 nM for the second. The second is the more potent here.

First: O=c1oc(N2CCOCC2)cc2c(-c3ccccc3)cccc12
Second: O=c1oc(N2CCOCC2)cc2c(-c3cccc(-c4ccccc4)c3)cccc12
The IC50 of the first is 3.8-fold higher: 2600 nM for the first, 680 nM for the second. The second is the more potent here.

`O=c1cc(N2CCOCC2)c2ccc(-c3cc4ccccc4s3)cc2o1` and `O=c1cc(N2CCOCC2)c2cc(-c3cc4ccccc4s3)ccc2o1` cannot be ordered by IC50: over 10000 nM for the first, over 10000 nM for the second.

Compared with `O=c1cc(N2CCOCC2)c2ccc(-c3cccc(-c4ccccc4)c3)cc2o1`, `O=c1cc(N2CCOCC2)c2cc(-c3cccc(-c4ccccc4)c3)ccc2o1` is lower in IC50: over 10000 nM for the first, 1600 nM for the second. The second is the more potent here.

`O=c1cc(N2CCOCC2)c2cc(-c3ccccc3)ccc2o1` and `O=c1cc(N2CCOCC2)c2ccc(-c3ccccc3)cc2o1` are within 1.5-fold of each other in IC50: 1800 nM for the first, 1700 nM for the second.
